Results as given in ChEMBL document CHEMBL5223188, “Discovery of OICR12694: A Novel, Potent, Selective, and Orally Bioavailable BCL6 BTB Inhibitor” (ACS Med Chem Lett, 2023).

Experiments:
in vitro [1] = conditions: human, liver microsomes
in vitro [2] = conditions: mouse, liver microsomes
in vitro [3] = conditions: human, Caco-2

Cc1nc2c(c(-c3cc(C(N)=O)c(O)c(F)c3F)cn2CC(=O)Nc2cc(N3CCN(C)C[C@@H]3C)ncc2Cl)c(=O)n1C
remaining at 1 h (in vitro [1]): 73%
remaining at 1 h (in vitro [2]): 65%
Papp A→B (in vitro [3]): 4.4 ×10⁻⁶ cm/s

C[C@@H]1COCCN1c1cc(NC(=O)Cn2cc(-c3cc(Cl)c(O)c(C(N)=O)c3)c3c(=O)n(C)cnc32)c(Cl)cn1
remaining at 1 h (in vitro [1]): 55%
remaining at 1 h (in vitro [2]): 36%
Papp A→B (in vitro [3]): 3 ×10⁻⁶ cm/s

C[C@H]1CN(C)CCN1c1cc(NC(=O)Cn2cc(-c3cc(F)c(O)c(C(N)=O)c3)c3c(=O)n(C)cnc32)c(Cl)cn1
remaining at 1 h (in vitro [1]): 62%
remaining at 1 h (in vitro [2]): 49%
Papp A→B (in vitro [3]): 0.5 ×10⁻⁶ cm/s

C[C@H]1COCCN1c1cc(NC(=O)Cn2cc(-c3cc(Cl)c(O)c(C(N)=O)c3)c3c(=O)n(C)cnc32)c(Cl)cn1
remaining at 1 h (in vitro [1]): 27%
remaining at 1 h (in vitro [2]): 63%
Papp A→B (in vitro [3]): 3.6 ×10⁻⁶ cm/s

C[C@H]1CN(C)CCN1c1cc(NC(=O)Cn2cc(-c3cc(F)c(O)c(C(N)=O)c3F)c3c(=O)n(C)cnc32)c(Cl)c(F)n1
remaining at 1 h (in vitro [1]): 16%
remaining at 1 h (in vitro [2]): 43%
Papp A→B (in vitro [3]): 2.8 ×10⁻⁶ cm/s
